Assay results from ChEMBL document CHEMBL1137489, “Inhibition of choline transport by redox-active cholinomimetic bis-catechol reagents” (Bioorg Med Chem, 2007).
pIC50, pKi: −log10 of the molar value. Calls of active or inactive are those of the source. The rule behind the calls is not given here.

Tests used:
[1] = Inhibition of C57BL/6 mouse synaptosomal choline transporter; parameters: species or system C57BL6
[2] = species on record: Mus musculus; assay: Inhibition of C57BL/6 mouse nicotinic acetyl choline receptor; details: C57BL6

| SMILES | pIC50 [1] | pKi [1] | Activity [2] |
| --- | --- | --- | --- |
| C[N+](C)(C)CCCCCC[N+](C)(C)C [HEXAMETHONIUM CHLORIDE] | 3.89 | – | – |
| C[N+](C)(CCCCCC[N+](C)(C)Cc1cccc(O)c1O)Cc1cccc(O)c1O | 4.12 | 4.14 | Active |
| C[N+](C)(C)CCCCCCCCCC[N+](C)(C)C [DECAMETHONIUM] | 5.82 | – | – |
| C[N+](C)(CCCCCCCCCC[N+](C)(C)Cc1cccc(O)c1O)Cc1cccc(O)c1O | 4.68 | 4.51 | Active |
